Test results reported in US20110152314A1, “USE OF TENATOPRAZOLE FOR THE TREATMENT OF GASTROESOPHAGEAL REFLUX DISEASE” (SIDEM PHARMA, priority 2002, published 2011).

Assays:
Type in all cases: in vivo, human
[1] = test system: patients suffering from erosive and/or ulcerative type reflux esophagitis; test: Open-labeled studies in reflux esophagitis: improvement rating of subjective and objective symptoms; conditions: 10 mg tablet orally once a day
Procedure: (§1) Two open-labeled studies have been conducted in order to evaluate the efficacy and safety of tenatoprazole for gastroesophageal reflux disease. 22 patients in the first study and 24 patients in the second study, of more than 20 years of age, suffering from erosive and/or ulcerative type reflux esophagitis (diagnosed by endoscopy), received tablets containing enteric-coated granules with 10 mg of tenatoprazole.
[…] […], or at the withdrawal from the study, the disease stages were evaluated according to the Savary and Miller classification and the treatment was stopped when healing was confirmed. The condition was evaluated as healed when disappearance of erosion was confirmed.

[2] = test system: patients with gastroesophageal reflux symptoms; test: Clinical treatment of patients with gastroesophageal reflux symptoms; conditions: 20 mg tablet daily;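 for Evolution of symptom: one to three plus signs grade improvement from moderate to highly favorable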
Procedure: Some clinical examples are given below, which show the effects of treatment on patients suffering from gastroesophageal reflux or dyspepsia, treated by the oral administration of tenatoprazole.
Treatment consisted in the daily administration of a tablet containing 20 mg tenatoprazole.

[3] = test system: patients suffering from erosive and/or ulcerative type reflux esophagitis; test: Open-labeled studies in reflux esophagitis: endoscopic improvement rating
Procedure: as §1
The tablets were administered orally once a day after breakfast, for a treatment period of 8 weeks, which was continued up to 12 weeks in some cases. Healing was controlled by endoscopic examination 4 weeks and 8 weeks after the first administration, or at the withdrawal from the study, the disease stages were evaluated according to the Savary and Miller classification and the treatment was stopped when healing was confirmed. The condition was evaluated as healed when disappearance of erosion was confirmed.

[4] = 1st study, 4 weeks, 10 mg tablet orally once a day
[5] = 1st study, 8 weeks, 10 mg tablet orally once a day
[6] = 1st study, final, 10 mg tablet orally once a day
[7] = 2nd study, 4 weeks, 10 mg tablet orally once a day
[8] = 2nd study, 8 weeks, 10 mg tablet orally once a day
[9] = 2nd study, 12 weeks, 10 mg tablet orally once a day
[10] = 2nd study, final, 10 mg tablet orally once a day

COc1ccc2[nH]c([S+]([O-])Cc3ncc(C)c(OC)c3C)nc2n1 (stereo not drawn) [tenatoprazole, 5-methoxy-2-[[(4-methoxy-3,5-dimethyl-2-pyridyl)methyl]sulfinyl]imidazo[4,5-b]pyridine]
Improvement rating of symptoms, patients rated A markedly improved ([1]; 1st study, 1 week): 16 | Improvement rating of symptoms, patients rated B moderately improved ([1]; 1st study, 1 week): 6 | Improvement rating of symptoms, patients rated C slightly improved ([1]; 1st study, 1 week): 0 | Improvement rating of symptoms, patients rated D not changed ([1]; 1st study, 1 week): 3 | Improvement rating of symptoms, patients rated E aggravated ([1]; 1st study, 1 week): 0 | Improvement rating of symptoms, patients rated A markedly improved ([1]; 1st study, 2 weeks): 21 | Improvement rating of symptoms, patients rated B moderately improved ([1]; 1st study, 2 weeks): 1 | Improvement rating of symptoms, patients rated C slightly improved ([1]; 1st study, 2 weeks): 0 | Improvement rating of symptoms, patients rated D not changed ([1]; 1st study, 2 weeks): 1 | Improvement rating of symptoms, patients rated E aggravated ([1]; 1st study, 2 weeks): 0 | Improvement rating of symptoms, patients rated A markedly improved ([1]; 1st study, 4 weeks): 23 | Improvement rating of symptoms, patients rated B moderately improved ([1]; 1st study, 4 weeks): 0 | Improvement rating of symptoms, patients rated C slightly improved ([1]; 1st study, 4 weeks): 1 | Improvement rating of symptoms, patients rated D not changed ([1]; 1st study, 4 weeks): 0 | Improvement rating of symptoms, patients rated E aggravated ([1]; 1st study, 4 weeks): 0 | Improvement rating of symptoms, patients rated A markedly improved ([1]; 1st study, 6 weeks): 10 | Improvement rating of symptoms, patients rated B moderately improved ([1]; 1st study, 6 weeks): 0 | Improvement rating of symptoms, patients rated C slightly improved ([1]; 1st study, 6 weeks): 1 | Improvement rating of symptoms, patients rated D not changed ([1]; 1st study, 6 weeks): 0 | Improvement rating of symptoms, patients rated E aggravated ([1]; 1st study, 6 weeks): 0 | Improvement rating of symptoms, patients rated A markedly improved ([1]; 1st study, 8 weeks): 9 | Improvement rating of symptoms, patients rated B moderately improved ([1]; 1st study, 8 weeks): 0 | Improvement rating of symptoms, patients rated C slightly improved ([1]; 1st study, 8 weeks): 1 | Improvement rating of symptoms, patients rated D not changed ([1]; 1st study, 8 weeks): 0 | Improvement rating of symptoms, patients rated E aggravated ([1]; 1st study, 8 weeks): 0 | Improvement rating of symptoms, patients rated A markedly improved ([1]; 1st study, 10 weeks): 2 | Improvement rating of symptoms, patients rated B moderately improved ([1]; 1st study, 10 weeks): 0 | Improvement rating of symptoms, patients rated C slightly improved ([1]; 1st study, 10 weeks): 0 | Improvement rating of symptoms, patients rated D not changed ([1]; 1st study, 10 weeks): 0 | Improvement rating of symptoms, patients rated E aggravated ([1]; 1st study, 10 weeks): 0 | Improvement rating of symptoms, patients rated A markedly improved ([1]; 1st study, final): 21 | Improvement rating of symptoms, patients rated B moderately improved ([1]; 1st study, final): 0 | Improvement rating of symptoms, patients rated C slightly improved ([1]; 1st study, final): 1 | Improvement rating of symptoms, patients rated D not changed ([1]; 1st study, final): 0 | Improvement rating of symptoms, patients rated E aggravated ([1]; 1st study, final): 0 | Improvement rating of symptoms, patients rated A markedly improved ([1]; 2nd study, 1 week): 19 | Improvement rating of symptoms, patients rated B moderately improved ([1]; 2nd study, 1 week): 2 | Improvement rating of symptoms, patients rated C slightly improved ([1]; 2nd study, 1 week): 1 | Improvement rating of symptoms, patients rated D not changed ([1]; 2nd study, 1 week): 1 | Improvement rating of symptoms, patients rated E aggravated ([1]; 2nd study, 1 week): 0 | Improvement rating of symptoms, patients rated A markedly improved ([1]; 2nd study, 2 weeks): 21 | Improvement rating of symptoms, patients rated B moderately improved ([1]; 2nd study, 2 weeks): 1 | Improvement rating of symptoms, patients rated C slightly improved ([1]; 2nd study, 2 weeks): 1 | Improvement rating of symptoms, patients rated D not changed ([1]; 2nd study, 2 weeks): 0 | Improvement rating of symptoms, patients rated E aggravated ([1]; 2nd study, 2 weeks): 0 | Improvement rating of symptoms, patients rated A markedly improved ([1]; 2nd study, 4 weeks): 20 | Improvement rating of symptoms, patients rated B moderately improved ([1]; 2nd study, 4 weeks): 1 | Improvement rating of symptoms, patients rated C slightly improved ([1]; 2nd study, 4 weeks): 1 | Improvement rating of symptoms, patients rated D not changed ([1]; 2nd study, 4 weeks): 0 | Improvement rating of symptoms, patients rated E aggravated ([1]; 2nd study, 4 weeks): 0 | Improvement rating of symptoms, patients rated A markedly improved ([1]; 2nd study, 6 weeks): 10 | Improvement rating of symptoms, patients rated B moderately improved ([1]; 2nd study, 6 weeks): 0 | Improvement rating of symptoms, patients rated C slightly improved ([1]; 2nd study, 6 weeks): 1 | Improvement rating of symptoms, patients rated D not changed ([1]; 2nd study, 6 weeks): 0 | Improvement rating of symptoms, patients rated E aggravated ([1]; 2nd study, 6 weeks): 0 | Improvement rating of symptoms, patients rated A markedly improved ([1]; 2nd study, 8 weeks): 10 | Improvement rating of symptoms, patients rated B moderately improved ([1]; 2nd study, 8 weeks): 1 | Improvement rating of symptoms, patients rated C slightly improved ([1]; 2nd study, 8 weeks): 0 | Improvement rating of symptoms, patients rated D not changed ([1]; 2nd study, 8 weeks): 0 | Improvement rating of symptoms, patients rated E aggravated ([1]; 2nd study, 8 weeks): 0 | Improvement rating of symptoms, patients rated A markedly improved ([1]; 2nd study, 10 weeks): 0 | Improvement rating of symptoms, patients rated B moderately improved ([1]; 2nd study, 10 weeks): 1 | Improvement rating of symptoms, patients rated C slightly improved ([1]; 2nd study, 10 weeks): 0 | Improvement rating of symptoms, patients rated D not changed ([1]; 2nd study, 10 weeks): 0 | Improvement rating of symptoms, patients rated E aggravated ([1]; 2nd study, 10 weeks): 0 | Improvement rating of symptoms, patients rated A markedly improved ([1]; 2nd study, 12 weeks): 0 | Improvement rating of symptoms, patients rated B moderately improved ([1]; 2nd study, 12 weeks): 1 | Improvement rating of symptoms, patients rated C slightly improved ([1]; 2nd study, 12 weeks): 0 | Improvement rating of symptoms, patients rated D not changed ([1]; 2nd study, 12 weeks): 0 | Improvement rating of symptoms, patients rated E aggravated ([1]; 2nd study, 12 weeks): 0 | Improvement rating of symptoms, patients rated A markedly improved ([1]; 2nd study, final): 19 | Improvement rating of symptoms, patients rated B moderately improved ([1]; 2nd study, final): 2 | Improvement rating of symptoms, patients rated C slightly improved ([1]; 2nd study, final): 0 | Improvement rating of symptoms, patients rated D not changed ([1]; 2nd study, final): 0 | Improvement rating of symptoms, patients rated E aggravated ([1]; 2nd study, final): 0 | cases in which treatment was perfectly tolerated ([2]; patients of Table 2): 12 out of 14 | evolution observed in symptoms, overall ([2]; patients of Table 2): generally very favorable | Evolution of symptom ([2]; patient 25, heartburn, 12 weeks): +++ | Evolution of symptom ([2]; patient 28, nocturnal heartburn, 4 weeks): +++ | Evolution of symptom ([2]; patient 30, nocturnal heartburn, 8 weeks): +++ | Evolution of symptom ([2]; patient 34, heartburn, 8 weeks): +++ | Evolution of symptom ([2]; patient 35, nocturnal heartburn, 4 weeks): ++ | Evolution of symptom ([2]; patient 36, regurgitation, 8 weeks): +++ | Evolution of symptom ([2]; patient 38, heartburn, 8 weeks): +++ | Evolution of symptom ([2]; patient 38, nocturnal heartburn, 8 weeks): +++ | Evolution of symptom ([2]; patient 39, nocturnal heartburn, 4 weeks): + | Evolution of symptom ([2]; patient 41, heartburn, 8 weeks): +++ | Evolution of symptom ([2]; patient 42, heartburn, 8 weeks): ++ | Evolution of symptom ([2]; patient 45, nocturnal heartburn, 8 weeks): +++ | Evolution of symptom ([2]; patient 47, nocturnal heartburn, 8 weeks): ++ | Evolution of symptom ([2]; patient 49, regurgitation, 8 weeks): ++ | Endoscopic improvement rating, patients rated A healed [3, 4]: 20 | Endoscopic improvement rating, patients rated B markedly decreased [3, 4]: 1 | Endoscopic improvement rating, patients rated C moderately decreased [3, 4]: 0 | Endoscopic improvement rating, patients rated D slightly decreased [3, 4]: 0 | Endoscopic improvement rating, patients rated E not changed [3, 4]: 1 | Endoscopic improvement rating, patients rated F aggravated [3, 4]: 0 | Endoscopic improvement rating, patients rated A healed [3, 5]: 21 | Endoscopic improvement rating, patients rated B markedly decreased [3, 5]: 0 | Endoscopic improvement rating, patients rated C moderately decreased [3, 5]: 0 | Endoscopic improvement rating, patients rated D slightly decreased [3, 5]: 0 | Endoscopic improvement rating, patients rated E not changed [3, 5]: 1 | Endoscopic improvement rating, patients rated F aggravated [3, 5]: 0 | Endoscopic improvement rating, patients rated A healed [3, 6]: 21 | Endoscopic improvement rating, patients rated B markedly decreased [3, 6]: 0 | Endoscopic improvement rating, patients rated C moderately decreased [3, 6]: 0 | Endoscopic improvement rating, patients rated D slightly decreased [3, 6]: 0 | Endoscopic improvement rating, patients rated E not changed [3, 6]: 1 | Endoscopic improvement rating, patients rated F aggravated [3, 6]: 0 | Endoscopic improvement rating, patients rated A healed [3, 7]: 23 | Endoscopic improvement rating, patients rated B markedly decreased [3, 7]: 2 | Endoscopic improvement rating, patients rated C moderately decreased [3, 7]: 0 | Endoscopic improvement rating, patients rated D slightly decreased [3, 7]: 0 | Endoscopic improvement rating, patients rated E not changed [3, 7]: 0 | Endoscopic improvement rating, patients rated F aggravated [3, 7]: 0 | Endoscopic improvement rating, patients rated A healed [3, 8]: 24 | Endoscopic improvement rating, patients rated B markedly decreased [3, 8]: 0 | Endoscopic improvement rating, patients rated C moderately decreased [3, 8]: 0 | Endoscopic improvement rating, patients rated D slightly decreased [3, 8]: 0 | Endoscopic improvement rating, patients rated E not changed [3, 8]: 0 | Endoscopic improvement rating, patients rated F aggravated [3, 8]: 0 | Endoscopic improvement rating, patients rated A healed [3, 9]: 24 | Endoscopic improvement rating, patients rated B markedly decreased [3, 9]: 0 | Endoscopic improvement rating, patients rated C moderately decreased [3, 9]: 0 | Endoscopic improvement rating, patients rated D slightly decreased [3, 9]: 0 | Endoscopic improvement rating, patients rated E not changed [3, 9]: 0 | Endoscopic improvement rating, patients rated F aggravated [3, 9]: 0 | Endoscopic improvement rating, patients rated A healed [3, 10]: 24 | Endoscopic improvement rating, patients rated B markedly decreased [3, 10]: 0 | Endoscopic improvement rating, patients rated C moderately decreased [3, 10]: 0 | Endoscopic improvement rating, patients rated D slightly decreased [3, 10]: 0 | Endoscopic improvement rating, patients rated E not changed [3, 10]: 0 | Endoscopic improvement rating, patients rated F aggravated [3, 10]: 0 | patients not healed after 8 weeks treatment ([3]; both studies, 10 mg tablet orally once a day): Only one patient was not healed | efficacy in the treatment of gastroesophageal reflux disease, overall ([3]; both studies, healing obtained with a 4 week treatment): very effective
